These results are taken from patent publication US9615577B2, “Herbicidally active cyclic dione compounds, or derivatives therefor, substituted by a phenyl which has an alkynyl-containing substituent” (Syngenta Limited, priority 2012, dated 2017).

Holding throughout (assay): Biological Example 3 glasshouse assay for herbicidal activity, using various adjuvant systems, post-emergence
Common to all, as to assay type: in vivo

Assay [1] deals with Setaria faberi (SETFA). Particulars: 8 g/ha, 14 DAA, 0.5% v/v Adigor + 1.0% v/v AMS + 12.5% v/v IPA. On the procedure:
(§1) Post-emergence foliar spray application, 200 L/ha, usually one or two replicates for the weeds (depending on application rate), and two replicates for soybean.
(§2) Standard warm conditions (tropical), in glasshouse. Specifically, the glasshouse bay conditions are 24° C./18° C. day/night; 16/8 hours light/dark; 65% humidity.
(§3) The herbicidal application takes place at the following growth stages for plants which include inter alia one or more of the following plants (usually the herbicidal application takes place on at least the following six plants: DIGSA, ELEIN, SETFA, GLXMA Nikko, and GLXMA TMG133, and either BRADC or BRAPP):
Setaria faberi (SETFA)—growth stage 12 or 13
(§4) Each test Compound is applied with one of the following adjuvant systems (all percentages are final concentrations in the aqueous spray mixture):
(§5) Adjuvant system 1: 0.5% v/v Adigor™ *, 1.0% v/v AMS (ammonium sulphate) and 12.5% v/v IPA (isopropyl alcohol).
(§6) Adjuvant system 2: 0.5% v/v Adigor™ * and 12.5% v/v IPA (isopropyl alcohol).
(§7) Adjuvant system 3: 0.5% v/v Hexamoll™ DINCH **, 1.0% v/v AMS (ammonium sulphate) and 12.5% v/v IPA (isopropyl alcohol).
(§8) Seeds of the weed plants, typically including inter alia [either Brachiaria decumbens (BRADC) or Brachiaria platyphylla (BRAPP)], Digitaria sanguinalis (DIGSA), Eleusine indica (ELEIN), Setaria faberi (SETFA) are sown in seed trays (troughs) containing clay loam soil (pH 7.0, 2.2% organic matter, “Trough Mix A”); and soybean seed is sown in pots containing the same soil with 3 soybean seedlings per pot. The plants are sprayed with the test herbicide when they reach the growth stages mentioned above.
(§9) The test herbicidal solutions are prepared by mixing the appropriate aliquots of the test substance(s) and the adjuvant system indicated above *** in deionised water to give the desired treatment concentration. […]
(§10) A visual assessment of the % herbicidal damage is made 7 and 14 Days After herbicide Application (DAA) (or, in a minority of cases, 7 and 15 DAA), and the results are recorded as % visual herbicidal damage where 0%=no damage to plants and 100%=plant totally killed. […]

The subject of assay [2] is Digitaria sanguinalis (DIGSA). Particulars: 8 g/ha, 14 DAA, 0.5% v/v Adigor + 1.0% v/v AMS + 12.5% v/v IPA. On the procedure: as §1, §2, §3
Digitaria sanguinalis (DIGSA)—growth stage 12 or 13
as §4, §5, §6, §7
Seeds of the weed plants, typically including inter alia [either Brachiaria decumbens (BRADC) or Brachiaria platyphylla (BRAPP)], Digitaria sanguinalis (DIGSA), Eleusine indica (ELEIN), Setaria faberi (SETFA) are sown in seed trays (troughs) containing clay loam soil (pH 7.0, 2.2% organic matter, “Trough Mix A”); and soybean seed is sown in pots containing the same soil with 3 soybean seedlings per pot. The plants are sprayed with the test herbicide when they reach the growth stages mentioned above. […]
as §10

Assay [3] concerns Glycine max (GLXMA, soybean) cultivar “Nikko”. Particulars: 120 g/ha, 14 or 15 DAA, adjuvant system per compound. On the procedure: as §1, §2, §3
Glycine max (GLXMA, soybean) cultivar “Nikko”—growth stage: 1st trifoliate
as §4, §5
Adjuvant system 2: 0.5% v/v Adigor™ * and 12.5% v/v IPA (isopropyl alcohol). […]
as §10

Assay [4] deals with Eleusine indica (ELEIN). Particulars: 8 g/ha, 14 DAA, adjuvant system per compound. On the procedure:
as §1, §2, §3
Eleusine indica (ELEIN)—growth stage 12 or 13
as §4, §5, §6, §7, §8, §9, §10

In assay [5] the test system is Glycine max (GLXMA, soybean) cultivar “TMG133”. Particulars: 120 g/ha, 14 or 15 DAA, adjuvant system per compound. On the procedure:
as §1, §2, §3
Glycine max (GLXMA, soybean) cultivar “TMG133”—which is Roundup Ready™glyphosate-tolerant soybean cultivar TMG133 (typically available from Monsanto in Brazil)—growth stage: 1st trifoliate.
Each test Compound is applied with one of the following adjuvant systems (all percentages are final concentrations in the aqueous spray mixture): […]
as §10
Glycine max (GLXMA, soybean) cultivar “TMG133” is Roundup Ready™ glyphosate-tolerant soybean cultivar TMG133, and is typically available from Monsanto in Brazil.

Each structure is given as a SMILES string.

For the molecule `CC#Cc1cc(Cl)c(C2C(=O)CC3(CCOCC3)CC2=O)c(OC)c1` [Compound A-20, 9-(2-Chloro-6-methoxy-4-prop-1-ynyl-phenyl)-3-oxa-spiro[5.5]undecane-8,10-dione], the “percentage control of Setaria faberi (SETFA)” value in assay [1] turned out to be 98%. The “percentage control of Digitaria sanguinalis (DIGSA)” value in assay [2] came to 100%. Besides, the “percentage phytotoxicities on Glycine max (GLXMA, soybean) cultivar “Nikko”” value in assay [3] was 85%. The “percentage control of Eleusine indica (ELEIN)” value in assay [4] was determined as 95%. The “percentage phytotoxicities on Glycine max (GLXMA, soybean) cultivar “TMG133”” value in assay [5] amounted to 85%.
As for `CC#Cc1cc(C)c(C2C(=O)C3CCC(C3)C2=O)c(C)c1` (centres unmarked) [Compound A-5], the “percentage control of Eleusine indica (ELEIN)” value in assay [4] is reported as 45%.
Take `CC#Cc1cc(C)c(C2C(=O)CC(CCSC)CC2=O)c(C)c1` (centres unmarked) [Compound A-21, 2-(2,6-Dimethyl-4-prop-1-ynyl-phenyl)-5-(2-methylsulfanyl-ethyl)cyclohexane-1,3-dione]: the “percentage phytotoxicities on Glycine max (GLXMA, soybean) cultivar “Nikko”” value in assay [3] was 85%. The “percentage phytotoxicities on Glycine max (GLXMA, soybean) cultivar “TMG133”” value in assay [5] was found to be 85%.
